Legend:
[1] = test system: M24-MET human melanoma cells; assay: CB.17 SCID mouse xenograft model of human malignant melanoma; format: in vivo; conditions: 5 mg/kg i.p. twice daily, 5 days on 2 days off
Method: Cell Lines. Human melanoma cell line M24-MET (ATCC CRL-12270) was obtained from American Type Culture Collection (Rockville, Md.) and maintained as a continuous cell line in DMEM supplemented with 10% fetal calf serum (FCS), 4 mm glutamine, 100 units/ml penicillin G, and […] streptomycin sulfate. All of the tissue culture reagents were obtained from Life Technologies, Inc. Inc. (Gaithersburg, Md.).
Mice. Female CB.17 SCID mice were obtained from Taconic (Germantown, N.Y.) and housed in a specific-pathogen-free room located in a secure indoor facility with controlled temperature, humidity, and noise levels. Mice were housed in micro-isolator cages and fed with autoclaved rodent chow. Water was also autoclaved and supplemented with trimethoprim/sulfamethoxazol 3 days a week. […]
SCID Mouse Model of Human Malignant Melanoma. […] The size of subcutaneous tumors were measured on day 14 and day 16 to evaluate the ability of AP-1 to inhibit tumor growth in this SCID mouse xenograft model of melanoma. Tumor volumes were calculated using the formula for the volume of a prolate spheroid, V=4/3×3.14×length/2×width/2×depth/2.

[2] = test system: leukemia-initiating ALL xenograft cells; assay: Leukemia-initiating ALL xenograft cells treated in vitro and reinjected into NOD/SCID mice; format: in vivo, human; conditions: for spleen leukemia burden (nucleated spleen cell count) / spleen size (mean±SE): NOD/SCID mice sacrificed at 85 days
Method: Patient derived xenograft mouse models have predictive value for clinical responses (Xu C, Li X, Liu P, Li M and Luo F: Patient-derived xenograft mouse models: A high fidelity tool for individualized medicine (Review). Oncol Lett 17: 3-10, 2019). Xenograft clones isolated from spleens of NOD/SCID mice that developed overt leukemia after inoculation with primary leukemia cells from a B-lineage ALL patient were treated for 24 hours at 37° C. with one of two concentrations of AP-5 (1 μM or 3 μM in phosphate buffered saline [PBS] with 2% DMSO) or vehicle (PBS with 2% DMSO) and then reinjected into NOD/SCID mice (Control group: 9 mice; AP-5 groups: 8 mice per concentration level). Mice were monitored for signs of leukemia, and all mice in a given experiment were sacrificed when any mouse developed morbidity. The animal research in mice was conducted according to approved local IACUC protocols. All animal care procedures conformed to the Guide for the Care and Use of Laboratory Animals (National Research Council, National Academy Press, Washington D.C., USA. Revised 1996). Leukemia cells isolated from deidentified patient specimens were used in the described experiments.
Eight of the 9 control mice challenged with vehicle-treated xenograft cells developed leukemia between 81 and 85 days. All remaining mice were also sacrificed at 85 days. The spleen size and spleen leukemia burden were compared using previously published procedures (F. M. Uckun et al., 2015, J Clin Invest. 125:1006-18). […] The nucleated spleen cell count in these leukemic mice ranged from 192×10^6 to 940×10^6 (median: 576×10^6). The mean±SE values for all 9 control mice was 3.2±0.2 cm for the spleen size and 536.39±94.45×10^6 cells for the spleen leukemia burden (FIG. 4). By comparison, the spleens of mice inoculated with xenograft cells treated with AP-5 at a concentration of 1 μM (mean±SE=1.5±0.1 cm) (P=0.0011) or 3 μM (mean±SE=1.5±0.0 cm) (P=0.0018) were much smaller and contained substantially fewer cells (1 μM group: 7.95±1.11×10^6 cells/P=0.0104; 3 μM group: 5.84±1.07×10^6 cells/P=0.00002). […] FIG. 4 illustrates that AP-5 abrogates the ability of leukemia-initiating ALL xenograft cells to cause leukemia in NOD/SCID mice. The depicted Whisker plots in FIG. 4 represent the median and values (Min to Max. all data points are shown) for spleen size (A), and spleen leukemia burden (B). Kruskall Wallis and Dunn's multiple comparisons test were used for comparing the results among different groups (p<0.05). Statistical significance between groups is shown by the depicted p-values.

[3] = xenograft cells treated 24 h with 1 μM
[4] = xenograft cells treated 24 h with 3 μM

For `C=CC1CN2CCC1CC2C(Oc1cc(OC(c2ccnc3ccccc23)C2CC3CCN2CC3C=C)nc(OC(c2ccnc3ccccc23)C2CC3CCN2CC3C=C)n1)c1ccnc2ccccc12` (stereo not shown) [AP-1, 2,4,6-Tri(9-O-cinchoninyl)pyrimidine], the tumor progression [1] was “significantly slowed down the tumor progression” and the average tumor volume ([1]; day 16, from day 7) was 484.3±76.5 mm3.

“2,4,6-Tri (9-O-dihydrocinchoninyl)pyrimidine [AP-5]” was tested, and the “ability of xenograft cells to initiate leukemia in NOD/SCID mice” value ([2]; low micromolar concentration (1 or 3 μM)) was “capable of abrogating the ability of the putative leukemic stem cell subpopulation of BPL xenograft cells to initiate leukemia”, the “spleen leukemia burden (nucleated spleen cell count)” value [2, 3] was 7.95±1.11 ×10^6 cells and the “spleen size (mean±SE)” value [2, 3] was 1.5±0.1 cm. The “spleen leukemia burden (nucleated spleen cell count)” value [2, 4] was 5.84±1.07 ×10^6 cells and the “spleen size (mean±SE)” value [2, 4] was 1.5±0.0 cm.

— patent US11066421B1, “Synthetic cinchona alkaloids against cancer” (Ares Pharmaceuticals, LLC, priority 2021, dated 2021)
